Test results published in ChEMBL document CHEMBL5331117, “X-Ray Conformation and Structure-Activity Relationships of MA026, a Reversible Tight Junction Opener” (J Med Chem, 2023).

These compounds were tested on MDCK-II (assay: Induction of claudin-1 mediated tight junction opening in MDCK-II cells assessed as increase in FITC-conjugated dextran incubated for 5 hrs relative to control). Details: Canis lupus familiaris.
Type: cell-based
Design: concentration or dose not given beside the values
For `CCCCCCCCCC(=O)N[C@@H](CC(C)C)C(=O)N[C@H](CCC(=O)O)C(=O)N[C@H](CCC(N)=O)C(=O)N[C@@H](C(=O)N[C@H](CC(C)C)C(=O)N[C@H](CCC(N)=O)C(=O)N[C@@H]1COC(=O)[C@H]([C@@H](C)CC)NC(=O)[C@@H](CCC(N)=O)NC(=O)[C@H](CC(C)C)NC(=O)[C@H](CC(C)C)NC(=O)[C@@H](CCC(N)=O)NC(=O)[C@@H](CC(C)C)NC(=O)[C@@H](C(C)C)NC1=O)C(C)C`, the Activity was 0.8%. Compound `CCCCCCC[C@@H](O)CC(=O)N[C@@H](CC(C)C)C(=O)N[C@H](CCC(=O)O)C(=O)N[C@H](CCC(N)=O)C(=O)N[C@@H](C(=O)N[C@H](CC(C)C)C(=O)N[C@@H](CCC(N)=O)C(=O)N[C@@H]1COC(=O)[C@H]([C@@H](C)CC)NC(=O)[C@@H](CCC(N)=O)NC(=O)[C@H](C)NC(=O)[C@H](CC(C)C)NC(=O)[C@@H](CCC(N)=O)NC(=O)[C@@H](CC(C)C)NC(=O)[C@@H](C(C)C)NC1=O)C(C)C` has an Activity of 9.8%. Work on `CCCCCCC[C@@H](O)CC(=O)N[C@@H](CC(C)C)C(=O)N[C@H](CCC(=O)O)C(=O)N[C@H](C)C(=O)N[C@@H](C(=O)N[C@H](CC(C)C)C(=O)N[C@@H](CCC(N)=O)C(=O)N[C@@H]1COC(=O)[C@H]([C@@H](C)CC)NC(=O)[C@@H](CCC(N)=O)NC(=O)[C@H](CC(C)C)NC(=O)[C@H](CC(C)C)NC(=O)[C@@H](CCC(N)=O)NC(=O)[C@@H](CC(C)C)NC(=O)[C@@H](C(C)C)NC1=O)C(C)C` yielded an Activity of 32%. `CCCC(=O)N[C@@H](CC(C)C)C(=O)N[C@H](CCC(=O)O)C(=O)N[C@H](CCC(N)=O)C(=O)N[C@@H](C(=O)N[C@H](CC(C)C)C(=O)N[C@@H](CCC(N)=O)C(=O)N[C@@H]1COC(=O)[C@H]([C@@H](C)CC)NC(=O)[C@@H](CCC(N)=O)NC(=O)[C@H](CC(C)C)NC(=O)[C@H](CC(C)C)NC(=O)[C@@H](CCC(N)=O)NC(=O)[C@@H](CC(C)C)NC(=O)[C@@H](C(C)C)NC1=O)C(C)C` showed an Activity of -1%. In the case of `CC[C@H](C)[C@@H]1NC(=O)[C@@H](CCC(N)=O)NC(=O)[C@H](CC(C)C)NC(=O)[C@H](CC(C)C)NC(=O)[C@@H](CCC(N)=O)NC(=O)[C@@H](CC(C)C)NC(=O)[C@@H](C(C)C)NC(=O)[C@H](NC(=O)[C@H](CCC(N)=O)NC(=O)[C@@H](CC(C)C)NC(=O)[C@H](NC(=O)[C@@H](CCC(N)=O)NC(=O)[C@@H](CCC(=O)O)NC(=O)[C@H](CC(C)C)NC(=O)CCC2CCCCC2)C(C)C)COC1=O`, the Activity is reported as 18.7%. `CCCCCCCCCC(=O)N[C@@H](CC(C)C)C(=O)N[C@H](CCC(=O)O)C(=O)N[C@H](CCC(N)=O)C(=O)N[C@@H](C(=O)N[C@H](CC(C)C)C(=O)N[C@@H](CCC(N)=O)C(=O)N[C@@H]1COC(=O)[C@H]([C@@H](C)CC)NC(=O)[C@@H](CCC(N)=O)NC(=O)[C@H](CC(C)C)NC(=O)[C@H](CC(C)C)NC(=O)[C@@H](CCC(N)=O)NC(=O)[C@@H](CC(C)C)NC(=O)[C@H](C(C)C)NC1=O)C(C)C` showed an Activity of 0.4%. `CCCCCCC(=O)N[C@@H](CC(C)C)C(=O)N[C@H](CCC(=O)O)C(=O)N[C@H](CCC(N)=O)C(=O)N[C@@H](C(=O)N[C@H](CC(C)C)C(=O)N[C@@H](CCC(N)=O)C(=O)N[C@@H]1COC(=O)[C@H]([C@@H](C)CC)NC(=O)[C@@H](CCC(N)=O)NC(=O)[C@H](CC(C)C)NC(=O)[C@H](CC(C)C)NC(=O)[C@@H](CCC(N)=O)NC(=O)[C@@H](CC(C)C)NC(=O)[C@@H](C(C)C)NC1=O)C(C)C` was tested, and the Activity was -2.8%. `CCCCCCC[C@@H](O)CC(=O)N[C@@H](CC(C)C)C(=O)N[C@H](CCC(=O)O)C(=O)N[C@H](CCC(N)=O)C(=O)N[C@@H](C(=O)N[C@H](CC(C)C)C(=O)N[C@@H](CCC(N)=O)C(=O)N[C@@H]1COC(=O)[C@H]([C@@H](C)CC)NC(=O)[C@@H](CCC(N)=O)NC(=O)[C@H](CC(C)C)NC(=O)[C@H](CC(C)C)NC(=O)[C@@H](CCC(N)=O)NC(=O)[C@@H](C)NC(=O)[C@@H](C(C)C)NC1=O)C(C)C` gave an Activity of 10.9%.

Same assay, conditions: Canis lupus familiaris, filed as opener
Work on `CCCCCCC[C@@H](O)CC(=O)N[C@@H](CC(C)C)C(=O)N[C@H](CCC(=O)O)C(=O)N[C@H](CCC(N)=O)C(=O)N[C@@H](C(=O)N[C@H](CC(C)C)C(=O)N[C@@H](CCC(N)=O)C(=O)N[C@@H]1COC(=O)[C@H]([C@@H](C)CC)NC(=O)[C@@H](CCC(N)=O)NC(=O)[C@H](CC(C)C)NC(=O)[C@H](CC(C)C)NC(=O)[C@@H](C)NC(=O)[C@@H](CC(C)C)NC(=O)[C@@H](C(C)C)NC1=O)C(C)C` yielded an Activity of 85.3%. `CCCCCCCCCC(=O)N[C@@H](CC(C)C)C(=O)N[C@H](CCC(=O)O)C(=O)N[C@H](CCC(N)=O)C(=O)N[C@@H](C(=O)N[C@H](CC(C)C)C(=O)N[C@@H](CCC(N)=O)C(=O)N[C@@H]1COC(=O)[C@H]([C@@H](C)CC)NC(=O)[C@H](CCC(N)=O)NC(=O)[C@H](CC(C)C)NC(=O)[C@H](CC(C)C)NC(=O)[C@@H](CCC(N)=O)NC(=O)[C@@H](CC(C)C)NC(=O)[C@@H](C(C)C)NC1=O)C(C)C` gave an Activity of 63.3%. With `CCCCCCCCCC(=O)N[C@H](CC(C)C)C(=O)N[C@H](CCC(=O)O)C(=O)N[C@H](CCC(N)=O)C(=O)N[C@@H](C(=O)N[C@H](CC(C)C)C(=O)N[C@@H](CCC(N)=O)C(=O)N[C@@H]1COC(=O)[C@H]([C@@H](C)CC)NC(=O)[C@@H](CCC(N)=O)NC(=O)[C@H](CC(C)C)NC(=O)[C@H](CC(C)C)NC(=O)[C@@H](CCC(N)=O)NC(=O)[C@@H](CC(C)C)NC(=O)[C@@H](C(C)C)NC1=O)C(C)C` the Activity was 56.8%. In the case of `CCCCCCCCCC(=O)N[C@@H](CC(C)C)C(=O)N[C@H](CCC(=O)O)C(=O)N[C@H](CCC(N)=O)C(=O)N[C@@H](C(=O)N[C@H](CC(C)C)C(=O)N[C@@H](CCC(N)=O)C(=O)N[C@@H]1COC(=O)[C@H]([C@@H](C)CC)NC(=O)[C@@H](CCC(N)=O)NC(=O)[C@H](CC(C)C)NC(=O)[C@H](CC(C)C)NC(=O)[C@@H](CCC(N)=O)NC(=O)[C@@H](CC(C)C)NC(=O)[C@@H](C(C)C)NC1=O)C(C)C`, the Activity is reported as 174%. With `CCCCCCCCCC(=O)N[C@@H](CC(C)C)C(=O)N[C@@H](CCC(=O)O)C(=O)N[C@H](CCC(N)=O)C(=O)N[C@@H](C(=O)N[C@H](CC(C)C)C(=O)N[C@@H](CCC(N)=O)C(=O)N[C@@H]1COC(=O)[C@H]([C@@H](C)CC)NC(=O)[C@@H](CCC(N)=O)NC(=O)[C@H](CC(C)C)NC(=O)[C@H](CC(C)C)NC(=O)[C@@H](CCC(N)=O)NC(=O)[C@@H](CC(C)C)NC(=O)[C@@H](C(C)C)NC1=O)C(C)C` the Activity was 85.4%. Work on `CCCCCCCCCC(=O)N[C@@H](CC(C)C)C(=O)N[C@H](CCC(=O)O)C(=O)N[C@H](CCC(N)=O)C(=O)N[C@@H](C(=O)N[C@H](CC(C)C)C(=O)N[C@@H](CCC(N)=O)C(=O)N[C@@H]1COC(=O)[C@H]([C@@H](C)CC)NC(=O)[C@@H](CCC(N)=O)NC(=O)[C@H](CC(C)C)NC(=O)[C@H](CC(C)C)NC(=O)[C@H](CCC(N)=O)NC(=O)[C@@H](CC(C)C)NC(=O)[C@@H](C(C)C)NC1=O)C(C)C` yielded an Activity of 47.6%.
